Reference: paper PMC12029898, “Cellular Metabolomics Reveals Differences in the Scope of Liver Protection Between Ammonium-Based Glycyrrhizinate and Magnesium Isoglycyrrhizinate” (Metabolites, 2025)

Key:
Type in all cases: cell-based, human
LO2 cells = assay: Cell metabolomics (UPLC-MS/MSe) of APAP-injured LO2 cells, differential metabolites DIAM vs MAGN; conditions: 600 μM, 48 h
Method: LC-MS/MS analysis was conducted utilizing a Waters Acquity H UPLC system, interfaced with a Q-MS detector (Xevo G3 QTof, Waters, Milford, MA, USA). Chromatographic separation of metabolites was achieved on a BEH C18 Column (1.7 µm, 2.1 mm × 100 mm, Waters), maintained at a temperature of 40 °C. The injector sample chamber was maintained at 4 °C to ensure optimal sample handling. For positive ion analysis, the mobile phase comprised two solvents, 0.1% formic acid in water (solvent A) and acetonitrile (solvent B), delivered at a flow rate of 300 μL/min. The elution gradient was programmed as follows (acetonitrile percentage): 0–1 min 5%, 1–2 min 5–30%, 2–4 min 30–50%, 4–16 min 50–90%, 19–21 min 95%, 21–21.1 min 95–5%, and 21.1–23 min 5%. The capillary, sample cone, and source offset were set as 2.18 kV, 40, and 30. The temperatures of the source and desolvation were 100 and 600 °C. The gas flow of the cone gas and desolvation gas was set as 50 and 800 L/h. For the negative ion mode, the mobile phase consisted of 10 mM ammonium acetate (solvent A) and acetonitrile (solvent B), delivered at a flow rate of 300 μL/min. The elution gradient was programmed as follows: 0–1 min, 5%; 1–3 min, 5–80%; 3–4 min, 80–82%; 4–6 min, 82–88%; 6–25 min, 88–92%; 25–27 min, 92–95%; 27–27.1 min, 95–5%; 27.1–29 min, 5%. The mass spectrometry conditions were similar to those employed in the positive mode, with the exception of the capillary voltage, which was set to 2 kV. All samples were analyzed using an ESI source in MSe full scan mode, with a mass range spanning from m/z 50 to 2000 and a scan time of 0.5 s. Additionally, an automatic calibration system was employed to automatically adjust the MS and MSe parameters every 10 s.
LO2 cells in the logarithmic growth phase were seeded into a 6-well plate at a density of 3 × 10^4 cells per well and incubated overnight under conditions of 37 °C and 5% CO2. Subsequently, varying concentrations of APAP were introduced, and MONO, DIAM, and MAGN were dissolved in the culture medium prior to their addition to the wells, ensuring a final concentration of 600 μM. The cells were then exposed to these samples for 48 h, following which the culture medium was discarded. The cells were rinsed with pre-cooled PBS at 4 °C and subsequently inactivated by the addition of 80% methanol maintained at a temperature below −20 °C. The cells were scraped off and homogenized using a cell disruptor for 3 min in an ice bath. The homogenized samples were centrifuged at 7500× g for 20 min at 4 °C, and the resultant supernatant was collected and dried using nitrogen gas. The dried samples were redissolved in 80% methanol at −20 °C, vortexed for 1 min, sonicated for 30 s, and then centrifuged again at 7500× g for 20 min at 4 °C. A total of 10 μL was allocated from each sample and mixed as a quality control (QC) sample, while 5 μL of the supernatant was subjected to UPLC-MS/MSe data acquisition on the instrument. The entire procedure was repeated in parallel for all samples, with a total of six replicates performed.
Firstly, the raw data in the “.raw” format were imported into Progenesis QI software (Waters, Milford, MA, USA). This processing encompassed peak alignment, deconvolution, denoising, and other essential steps, resulting in the extraction of crucial information including retention time, charge-to-mass ratio, compound names, peak areas, and related parameters. To ensure data comparability and accuracy, each peak was then normalized against the total ion intensity, yielding a standardized matrix of retention time, peak area, and m/z values. […] Concurrently, the processed data were imported into SIMCA-P 14.0 software (Umetrics, Umeaa, Sweden) for advanced multivariate statistical analysis, encompassing principal component analysis (PCA) and supervised Orthogonal Partial Least Squares Discriminant Analysis (OPLS-DA). […]

[1] = tested on: 11β-hydroxysteroid dehydrogenase type 1 (11β-HSD1); assay: ELISA of protein expression in LO2 cells: 11β-HSD1; conditions: 16 mM APAP, 600 μM, 48 h
Method: (§1) The expression levels of glutamylcysteine synthetase (GCL), glutathione synthetase (GS), and 11β-hydroxysteroid dehydrogenase type 1 (11β-HSD1) in cells were quantified using commercially available enzyme-linked immunosorbent assay (ELISA) kits (Shanghai Aimeng Youning Biotechnology Co., Ltd., Shanghai, China). Cells in the logarithmic growth phase were seeded into 6-well plates at a density of 3 × 10^4 cells per well, pre-incubated for 24 h, and subsequently exposed to 16 mM APAP with concurrent administration of MONO, DIAM, and MAGN at a final concentration of 600 μM for 48 h. Following three PBS washes, cells were harvested using cell scrapers. Total protein content was determined by the Bradford assay, and samples were normalized to equivalent protein concentrations prior to quantitative analysis of target proteins according to the manufacturer’s protocols.

[2] = tested on: glutamylcysteine synthetase (GCL); assay: ELISA of protein expression in LO2 cells: GCL; conditions: 16 mM APAP, 600 μM, 48 h
Method: as §1

[3] = tested on: glutathione synthetase (GS); assay: ELISA of protein expression in LO2 cells: GS; conditions: 16 mM APAP, 600 μM, 48 h
Method: as §1

For `CC1(C)[C@@H](O[C@H]2O[C@H](C(=O)O)[C@@H](O)[C@H](O)[C@H]2O[C@@H]2O[C@H](C(=O)O)[C@@H](O)[C@H](O)[C@H]2O)CC[C@]2(C)[C@H]3C(=O)C=C4[C@@H]5C[C@@](C)(C(=O)O)CC[C@]5(C)CC[C@@]4(C)[C@]3(C)CC[C@@H]12` [DIAM, diammonium glycyrrhizinate], the “FC of 3-(10Z)-10-Heptadecen-1-ylphenol” value (LO2 cells; highest group DIAM vs MAGN) was 1.68, the “FC of 7-Dehydrocholesterol benzoate” value (LO2 cells; highest group DIAM vs MAGN) was greater than 10 and the “FC of 8-Demethyl meiqx” value (LO2 cells; highest group DIAM vs MAGN) was 1.92. The “FC of 25-Hydroxyvitamin D2” value (LO2 cells; highest group DIAM vs MAGN) was 3.85, the “FC of Ammonium glycyrrhizate” value (LO2 cells; highest group DIAM vs MAGN) was 2.12 and the “FC of Argiotoxin 659” value (LO2 cells; highest group DIAM vs MAGN) was 2.98. For the same molecule, the “FC of Butyroin” value (LO2 cells; highest group DIAM vs MAGN) was 1.23, the “FC of C14 Ceramide” value (LO2 cells; highest group DIAM vs MAGN) was 1.20 and the “FC of C16 Lactosylceramide (d18:1/16:0)” value (LO2 cells; highest group DIAM vs MAGN) was 1.24. For the same molecule, the “FC of CETYL BENZOATE” value (LO2 cells; highest group DIAM vs MAGN) was 1.37, the “FC of Cerlapirdine” value (LO2 cells; highest group DIAM vs MAGN) was greater than 10 and the “FC of Ergocryptine” value (LO2 cells; highest group DIAM vs MAGN) was 1.92. The “FC of Euscaphic acid” value (LO2 cells; highest group DIAM vs MAGN) was 4.79, the “FC of Floctafenine” value (LO2 cells; highest group DIAM vs MAGN) was 4.41 and the “FC of Glabric acid” value (LO2 cells; highest group DIAM vs MAGN) was greater than 10. For the same molecule, the “FC of Glycerol phenylbutyrate” value (LO2 cells; highest group DIAM vs MAGN) was 1.36, the “FC of Glycyrrhetaldehyde” value (LO2 cells; highest group DIAM vs MAGN) was greater than 10 and the “FC of Glycyrrhizin” value (LO2 cells; highest group DIAM vs MAGN) was 1.24. For the same molecule, the “FC of Gypsogenin” value (LO2 cells; highest group DIAM vs MAGN) was 1.79, the “FC of N-eicosanoylsphinganine” value (LO2 cells; highest group DIAM vs MAGN) was 2.07 and the “FC of N-tetracosanoylsphinganine” value (LO2 cells; highest group DIAM vs MAGN) was greater than 10. For the same molecule, the “FC of Onnamide A” value (LO2 cells; highest group DIAM vs MAGN) was 2.42, the “FC of Pinnatoxin G” value (LO2 cells; highest group DIAM vs MAGN) was 1.55 and the “FC of Prednisolone sodium tetrahydrophthalic” value (LO2 cells; highest group DIAM vs MAGN) was 1.66. The “FC of Pristimerin” value (LO2 cells; highest group DIAM vs MAGN) was 1.26, the “FC of Propapyriogenin A2” value (LO2 cells; highest group DIAM vs MAGN) was 6.06 and the “FC of Sampangine” value (LO2 cells; highest group DIAM vs MAGN) was greater than 10. For the same molecule, the “FC of Sphingosine-1-phosphate (d16:1)” value (LO2 cells; highest group DIAM vs MAGN) was 3.78, the “FC of Stanozolol” value (LO2 cells; highest group DIAM vs MAGN) was 1.81 and the “FC of Testosterone ketolaurate” value (LO2 cells; highest group DIAM vs MAGN) was 1.67. For the same molecule, the “FC of Tetrahydrospirilloxanthin” value (LO2 cells; highest group DIAM vs MAGN) was 1.29, the “FC of Tirilazad” value (LO2 cells; highest group DIAM vs MAGN) was 1.74 and the “FC of Tisocalcitate” value (LO2 cells; highest group DIAM vs MAGN) was 1.39. For the same molecule, the “FC of Trametenolic acid” value (LO2 cells; highest group DIAM vs MAGN) was greater than 10, the “FC of Varespladib” value (LO2 cells; highest group DIAM vs MAGN) was 1.71 and the 11β-HSD1 expression [1] was “most pronounced upregulation”.

In the case of `CC1(C)[C@@H](O[C@H]2O[C@H](C(=O)O)[C@@H](O)[C@H](O)[C@H]2O[C@@H]2O[C@H](C(=O)O)[C@@H](O)[C@H](O)[C@H]2O)CC[C@]2(C)[C@H]3C(=O)C=C4[C@H]5C[C@@](C)(C(=O)O)CC[C@]5(C)CC[C@@]4(C)[C@]3(C)CC[C@@H]12` [MAGN, magnesium isoglycyrrhizinate], the GSH-to-GSSG ratio (LO2 cells; MAGN compared to DIAM) is reported as “stable”, the “FC of Alpha-Cehc” value (LO2 cells; highest group MAGN vs DIAM) is reported as 1.21 and the “FC of Dioleoylphosphatidylserine” value (LO2 cells; highest group MAGN vs DIAM) is reported as 1.92. The “FC of GSH” value (LO2 cells; highest group MAGN vs DIAM) was 1.24, the “FC of GSSG” value (LO2 cells; highest group MAGN vs DIAM) was 1.28 and the “FC of Menaquinol-8” value (LO2 cells; highest group MAGN vs DIAM) was 1.68. The “FC of N-[(15Z)-tetracosenoyl]sphing-4-enine-1-phosphocholine” value (LO2 cells; highest group MAGN vs DIAM) was 2.55, the “FC of Solanidine” value (LO2 cells; highest group MAGN vs DIAM) was 1.32 and the “intracellular GCL levels” value [2] was “significantly elevated”. The GS expression [3] was “remained comparable to DIAM-treated control”.
